One test concerns the target T1, SMYD3 (apo, native) (Homo sapiens, UniProt Q9H7B4).
T1 construct: Full length recombinant SMYD3 was produced as previously reported; made in house; host or cells: E. coli BL21(DE3), in some cases Rosetta 2
T1 sequence (Q9H7B4 1-428): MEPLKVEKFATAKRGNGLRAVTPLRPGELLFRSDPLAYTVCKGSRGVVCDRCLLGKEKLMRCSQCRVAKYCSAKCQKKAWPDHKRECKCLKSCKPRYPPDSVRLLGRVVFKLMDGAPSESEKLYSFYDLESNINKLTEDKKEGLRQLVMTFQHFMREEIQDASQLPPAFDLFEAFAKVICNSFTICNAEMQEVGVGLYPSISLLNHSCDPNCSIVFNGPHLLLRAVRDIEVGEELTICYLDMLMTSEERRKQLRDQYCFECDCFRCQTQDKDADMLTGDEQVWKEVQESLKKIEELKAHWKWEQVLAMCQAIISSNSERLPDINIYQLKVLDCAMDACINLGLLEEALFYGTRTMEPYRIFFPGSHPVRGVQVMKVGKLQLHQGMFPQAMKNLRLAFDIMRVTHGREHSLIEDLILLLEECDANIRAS
Briefly: GCI biosensor kinetic screening, apo SMYD3 surface. The test is classed as binding. To be noted: for LE (ligand efficiency): LE = −RT ln(KD)/n; for Kd / kd / kon at 250 µM: initial kinetic screening, fragment 250 μM, 15 °C; for kd / kon at 250 µM: 1:1 model; for kon at 250 µM: read-out: ka. The source says:
(§1) A multiplexed screening assay was set up with three different SMYD3 surfaces and a blank reference surface in flow channels 1–4 (FC1–FC4) (Fig. 2a), as described previously.[5] The apo SMYD3 surface detected fragments interacting anywhere on SMYD3, while a SMYD3 surface blocked by active site-specific tight-binding inhibitor EPZ031686 detected compounds binding elsewhere. The denatured surface served as a reference, detecting fragments binding to unfolded proteins, also potentially present to a significant degree in the other two surfaces.
After preparing the sensor surface and immobilising SMYD3, the functionality of the surface was assessed via analysis of interactions with the co-factor product S-adenosyl-homocysteine (SAH). It was used as a control in all experiments, confirming that sensor surfaces were intact. This was done using the novel multiple injection-based experimental design (Fig. 1) at 25 μM, i.e. in a weak binder mode (Fig. 2b).
(§2) The library was screened using the approach described in Fig. 1, i.e. injection of fragments at 250 μM for increasing durations of time in a single cycle, using a flow rate of 100 μL min^−1, data acquisition set to 40 Hz and with an association time of 5 s and dissociation of 20 s. Each fragment was addressed to all four channels and interactions with the native and blocked surfaces compared. The experimental conditions were chosen to ensure that the assay could reliably characterize the fast and transient interactions expected from typical fragments.
(§3) The kinetic screening of 1056 compounds was successfully completed in 72 hours. […] Hits were identified with full kinetic information using dissociation phases.
(§4) All interaction kinetic experiments were conducted with a GCI–flow-based biosensor (WAVEdelta, Creoptix AG/Malvern Panalytical) and PCH WAVEchip (Creoptix AG/Malvern Panalytical) sensor chips. The sensor chips were conditioned using injections of borate buffer (10 mM sodium tetraborate pH 8.5, 1 M NaCl). The running buffer composition, if not otherwise stated, was TBS buffer (50 mM Tris, 150 mM NaCl, 0.5 mM TCEP, 0.05% Tween 20, 1% DMSO, pH 8). SMYD3 was diluted to the desired concentration in 10 mM bis-Tris (pH 7.0) and amine coupled to the sensor surface of the PCH sensor chip. The sensor chip was functionalized at 25 °C by immobilising SMYD3 with EDC and NHS (Xantec) using an injection time of 420 s and a flow rate of 10 μL min^−1. The immobilisation levels ranged from 5000 pg mm^−2 to 18 500 pg mm^−2 surface mass to enable analysis of fragments spanning a broad range of affinities. After immobilization, the surface was deactivated with a running buffer containing 50 mM Tris for 420 s. The GCI data referencing and analysis were performed using WAVEcontrol V4.5 (Creoptix AG).
(§5) Kinetic measurements with controls and fragments were performed at 15 °C. Analysis of controls and follow up of hits was done using the multi cycle kinetic (MCK) injection of a concentration series for the same time, with a two-fold serial dilution starting at 250 μM for each compound. Solvent correction was performed ranging from 0.5–1.8% DMSO. Blank samples of the running buffer, 1× TBS (50 mM Tris, 150 mM NaCl, 0.5 mM TCEP, 0.05% Tween 20, 1% DMSO, pH 8), were injected during the measurements every fifth cycle. The experimental design illustrated in Fig. 1 was used for the screening against all four surfaces. The sensorgrams were adjusted to account for solvent correction and blank subtraction. Kinetic fitting was performed with the Direct Kinetics engine of WAVEcontrol software V4.5 (Creoptix AG) with a suitable fitting model.

In a further test the target is T2, SMYD3 (Homo sapiens, UniProt Q9H7B4).
T2 construct: Full length recombinant SMYD3 was produced as previously reported; made in house; host or cells: E. coli BL21(DE3), in some cases Rosetta 2
T2 sequence (Q9H7B4 1-428): T1 sequence (Q9H7B4 1-428)
Nature of the test: X-ray crystallography of SMYD3-fragment complexes (co-crystallization and soaking). The arrangement: key to XRC: success or failure of crystallization in complex with SMYD3: The success (+) or failure (−) of crystallization in complex with SMYD3; The success (+) or failure (−) of crystallization in complex with SMYD3. The conditions noted are these: 5 mM fragment co-crystallization or soaking. The source says:
To identify binding sites and binding modes, the fragment hits (Table 1) were used in both co-crystallization and soaking experiments to obtain SMYD3-fragment co-crystals for X-ray crystallographic analyses. Diffraction data of 1.6–1.9 Å maximum resolution were obtained for four fragments (Fig. 5). For data collection and refinement statistics, see ESI, ^† Table S1.
Four new sites were thus identified.
Polder (F0–Fc) maps (Fig. 5, right) were generated to establish whether the observed electron density features were more likely to represent background noise or to belong to bound fragments. These omit maps are generated upon exclusion of the ligand and surrounding solvent from the model, which aids in visualizing weak densities. […] For fragments FL01507, FL08580 and FL08619, a comparison of the maps obtained after refinement with a bound fragment with maps obtained upon their replacement with either glycerol or acetate, which were present in the crystallization or cryo-protectant solutions, respectively, was required.
8 mg mL^−1 of SMYD3 in storage buffer (TBS buffer containing 2 mM DTT) was pre-incubated for 4–8 hours with 5 mM of a respective fragment hit compound and 10% (v/v) DMSO. Subsequently, 1 μL of this solution was mixed with an equal volume of reservoir solution (100 mM Tris, 100 mM magnesium acetate, 15–17% PEG3350, pH 8.25–8.75) to create the drops for co-crystallization by hanging drop vapour diffusion performed at 20 °C. Needle-like co-crystals nucleated within 12 h of equilibration against the reservoir. In addition, crystals of SMYD3 obtained in ligand-free crystallization setups were soaked with fragment solution prior to freezing. All crystals were cryo-protected via brief immersion in reservoir solution supplemented with 10% (v/v) glycerol.
Diffraction data were collected at beamline ID23-1 of the European Synchrotron Radiation Facility (ESRF, Grenoble, France). Data were indexed, auto-processed, scaled and merged on-site using the implemented data processing routines and software. Fragment-associated electron density features were identified upon data analysis with the Pipedream system (version 1.4.0, Global Phasing Ltd, Cambridge, United Kingdom), which includes data processing with autoPROC,[14] molecular replacement with Phaser,[15] structure refinement with BUSTER version 2.10.4 (Global Phasing Ltd, Cambridge, United Kingdom), automated ligand fitting with Rhofit (Global Phasing Ltd, Cambridge, United Kingdom) and BUSTER post-refinement.[16] Refinement was done with Phenix,[17] and model building with Coot.[18] (F0–Fc) difference density maps for models, from which ligand atoms and surrounding water molecules were removed, were generated using Phenix.

For test [1], the target named is T3, SMYD3 in complex with active site-specific tight-binding inhibitor EPZ031686 (Homo sapiens, UniProt Q9H7B4).
T3 construct: Full length recombinant SMYD3 was produced as previously reported; made in house; host or cells: E. coli BL21(DE3), in some cases Rosetta 2
T3 sequence (Q9H7B4 1-428): T1 sequence (Q9H7B4 1-428)
Briefly: GCI biosensor kinetic screening, active site blocked SMYD3 surface. The conditions noted are these: for LE (ligand efficiency): LE = −RT ln(KD)/n, blocked SMYD3 surface; for Kd / kd / kon at 250 µM: initial kinetic screening, fragment 250 μM, 15 °C; for Kd: SMYD3 blocked by EPZ031686; for kd / kon at 250 µM: SMYD3 blocked by EPZ031686, 1:1 model; for kon at 250 µM: read-out: ka.
Source text: as §1, §2, §3, §4, §5

What is called Kd is the concentration at which binding is half-saturated. Regarding `COc1ccccc1C1OC(=O)CC1C(=O)O` (stereo not shown) [FL03512], at SMYD3 (apo, native), the “LE (ligand efficiency)” value is on record as 0.35 (kcal^-1 mol^-1)/HA, the Kd amounted to 38 µM, the kd is 1.61 s⁻¹ and the kon at 250 µM was 42200 M⁻¹ s⁻¹. The “XRC: success or failure of crystallization in complex with SMYD3” value (shortened to “XRC: success or failure”) at SMYD3 was “(−)”.
`O=C(O)c1cc(Br)c(O)c(Br)c1` [FL01775]: in test [1], the “LE (ligand efficiency)” value is reported as 0.48 (kcal^-1 mol^-1)/HA, the Kd was 56 µM, the kd turned out to be 1.37 s⁻¹ and the kon at 250 µM is 24400 M⁻¹ s⁻¹. The “XRC: success or failure” value at SMYD3 is “(−)”.
The like results for `Nc1ccnc(-c2cccnc2)n1` [FL08779] were, in that order, 0.48 (kcal^-1 mol^-1)/HA, 25 µM, 1.07 s⁻¹, 41900 M⁻¹ s⁻¹ and “(−)”.
The like results for `CC(C)(C)OC(=O)NC1CCC(CC(=O)O)CC1` (stereo not shown) [FL08758] were, in that order, 0.32 (kcal^-1 mol^-1)/HA, 60 µM, 2.01 s⁻¹, 33300 M⁻¹ s⁻¹ and “(−)”.
For the compound `Nc1nnc(-c2cccnc2)s1` [FL08795], at SMYD3 (apo, native), the “LE (ligand efficiency)” value is recorded as 0.49 (kcal^-1 mol^-1)/HA, the Kd amounted to 51.3 µM, the kd came to 2.04 s⁻¹ and the kon at 250 µM worked out at 39700 M⁻¹ s⁻¹. In addition, the “XRC: success or failure” value on SMYD3 was “(−)”.
Take `Nc1ccc(S(N)(=O)=O)cc1` [FL04272]: on SMYD3 (apo, native), the “LE (ligand efficiency)” value is listed as 0.66 (kcal^-1 mol^-1)/HA, the Kd is 4.4 µM, the kd was 0.68 s⁻¹ and the kon at 250 µM was found to be 150000 M⁻¹ s⁻¹. Besides, the “XRC: success or failure” value on SMYD3 was “(−)”.
As to `CC(C)c1nsc(N)n1` [FL01791], in test [1], the “LE (ligand efficiency)” value was 0.67 (kcal^-1 mol^-1)/HA, the Kd stood at 37 µM, the kd came to 1.46 s⁻¹ and the kon at 250 µM is 39100 M⁻¹ s⁻¹. For the same compound, the “XRC: success or failure” value at SMYD3 is given as “(+)”.
Taken in the same sequence, the figures for `Oc1ccc2ccncc2c1` [FL01657] were 0.53 (kcal^-1 mol^-1)/HA, 56 µM, 1.09 s⁻¹, 19400 M⁻¹ s⁻¹ and “(−)”.
Take `Nc1nc2cccnc2cc1Br` [FL01891]: at SMYD3 (apo, native), the “LE (ligand efficiency)” value is reported as 0.52 (kcal^-1 mol^-1)/HA; the affinity, expressed as Kd, was 27.4 µM; the kd turned out to be 0.70 s⁻¹; the kon at 250 µM turned out to be 25900 M⁻¹ s⁻¹. Moreover, at SMYD3, the “XRC: success or failure” value is reported as “(−)”.
With `COc1ccc(Br)cc1N` [FL01938], in test [1], the “LE (ligand efficiency)” value is reported as 0.53 (kcal^-1 mol^-1)/HA, the Kd came to 124 µM, the kd was 1.61 s⁻¹ and the kon at 250 µM was 13000 M⁻¹ s⁻¹. At SMYD3, the “XRC: success or failure” value is on record as “(−)”.
`O=S(=O)(c1ccccc1)C1CCNC1` (stereo not shown) [FL08644]: in test [1], the “LE (ligand efficiency)” value is reported as 0.51 (kcal^-1 mol^-1)/HA, the Kd is 5.6 µM, the kd stood at 0.42 s⁻¹ and the kon at 250 µM worked out at 75200 M⁻¹ s⁻¹. Besides, on SMYD3, the “XRC: success or failure” value is on record as “(−)”.
For `COc1ccc(-n2ncc(C(=O)O)c2C)cc1` [FL01833], in test [1], the “LE (ligand efficiency)” value is 0.31 (kcal^-1 mol^-1)/HA, binding was put at a Kd of 149 µM, the kd is 1.46 s⁻¹ and the kon at 250 µM was determined as 9780 M⁻¹ s⁻¹. In addition, the “XRC: success or failure” value at SMYD3 is recorded as “(−)”.
Turning to `O=C(O)c1ccnc2ccccc12` [FL02261], on SMYD3 (apo, native), the “LE (ligand efficiency)” value is given as 0.50 (kcal^-1 mol^-1)/HA, the Kd turned out to be 17.4 µM, the kd is 1.09 s⁻¹ and the kon at 250 µM was 62700 M⁻¹ s⁻¹. At SMYD3, the “XRC: success or failure” value is “(−)”.
Taken in the same sequence, the figures for `NC(=O)c1cccc(O)c1` [FL08580] were 0.70 (kcal^-1 mol^-1)/HA, 7.84 µM, 0.93 s⁻¹, 118000 M⁻¹ s⁻¹ and “(−)”.

Values taken from article PMC11187542, “Identification of fragments targeting SMYD3 using highly sensitive kinetic and multiplexed biosensor-based screening” (RSC Medicinal Chemistry, 2024).
